# Measured values as given in patent publication US20180057553A1, “CONJUGATE AND USE THEREOF” (The University of Tokyo, priority 2015, published 2018).
# Read-outs that look alike come from different tables or passages of the source.
# Experiments:
# [1] = target: T1, Recombinant human intelectin-1 (Homo sapiens, UniProt Q8WWA0, V109D); test: Binding of monoacylglycerol and intelectin (precipitation, SDS-PAGE, Example 5); details: lipid 100 micro M in medium containing intelectin, 15 minutes at 37 deg C
# T1 sequence (Q8WWA0 19-298 V109D): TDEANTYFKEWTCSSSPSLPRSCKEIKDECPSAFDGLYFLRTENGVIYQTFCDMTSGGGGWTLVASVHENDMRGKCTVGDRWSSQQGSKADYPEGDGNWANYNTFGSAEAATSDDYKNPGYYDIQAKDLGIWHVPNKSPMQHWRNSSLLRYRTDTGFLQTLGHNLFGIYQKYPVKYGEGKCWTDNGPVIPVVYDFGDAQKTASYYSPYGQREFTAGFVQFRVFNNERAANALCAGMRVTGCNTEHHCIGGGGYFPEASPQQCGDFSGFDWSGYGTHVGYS
# Protocol: Monoacylgrycerols such as monopalmitin and monoolein are used as a component of micelles or liposomes. 1-monopalmitin, 2-monopalmitin, or 1-palmitoyl lysophosphatidic acid as a negative control at the final concentration of 100 micro M was added to 500 microliters of a medium containing intelectin, and the medium was stirred intensely and incubated for 15 minutes at 37 deg C. Recombinant human intelectin-1 was used as intelectin. By the above-mentioned procedures, it is expected that insoluble aggregates having a micelle-like structure with the diol group facing outwards and the acyl group facing inwards are formed and intelectin binds on the surface.
# Subsequently, the samples were cooled for 15 minutes at 4 deg C. and centrifuged, and the precipitation was collected, washed once with buffer, and dissolved in sample buffer. Samples were then separated by SDS-PAGE and stained with Coomassie Brilliant Blue.
# [2] = target: T1, Recombinant human intelectin-1; test: Inhibition of the binding of intelectin to a 3-amino-1-propanediol sensor chip by various compounds (Biacore, Example 3)
# Protocol: The binding of purified intelectin to a sensor chip to which 3-amino-1-propanediol is fixed via an amino group was measured using Biacore (GE Healthcare Biosciences) under the presence of various kinds of compounds that were serially diluted. Recombinant human intelectin-1 was used as intelectin. The above-mentioned compound was a compound containing or not containing a diol group. Specifically, the compound was glycerol, 1,2-propanediol, 1,3-propanediol, 1-propanol, ethylene glycol, ethanol, 2-methoxyethanol, galactose, 2-acetamido-2-deoxy-4-O-beta-D-galactopyranosyl-D-glucopyranose (Galp-GlcNAc), 2-acetamido-2-deoxy-4-O-beta-D-galactofuranosyl-D-glucopyranose (Galf-GlcNAc), D-ribose, or L-ribose.
# Intelectin was used at the final concentration of 0.5 microgram/mL. 10 mM HEPES (pH 7.0) containing 1 mM CaCl2, 150 mM NaCl, and 0.03% Tween 20 was used as the measuring buffer. The binding of intelectin measured using the sample that was not added with an above-mentioned compound was considered 100%, and the binding of intelectin in each sample was measured.
# [3] = target: T2, Recombinant human TNF-alpha (Homo sapiens, UniProt P01375); test: Inhibitory effect on cytotoxicity by TNF-alpha in L929 cells (Example 12); assay type: cell-based, mouse; details: actinomycin D 2.12 micro M, TNF-alpha 1 ng/mL, 24 hours
# T2 construct: purchased Life Technologies
# T2 sequence (P01375 77-233 limits assumed): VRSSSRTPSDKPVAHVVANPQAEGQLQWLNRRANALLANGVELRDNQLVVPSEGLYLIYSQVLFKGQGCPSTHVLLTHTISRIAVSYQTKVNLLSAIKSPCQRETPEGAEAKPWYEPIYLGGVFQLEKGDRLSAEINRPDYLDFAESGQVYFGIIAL
# Protocol: Actinomycin D at the final concentration of 2.12 micro M, recombinant human TNF-alpha (Life Technologies) at the final concentration of 1 ng/mL, and serially diluted conjugates generated in Example 7 were added to the medium of L929, a mouse-derived cell line, and the cells were cultured for 24 hours at 37 deg C. Subsequently, the number of live cells were measured using a commercially available kit (model “CellTiter96 (Trademark),” Promega), and the cell survival rate was determined. Another experiment, where a commercially available anti-TNF formulation (Etanercept, soluble TNF receptor, product name “ Enbrel (registered trademark),” Takeda Pharmaceutical Company) was used instead of the conjugate generated in Example 7, was also performed as a control.
# [4] = target: T2, Recombinant human TNF-alpha; test: Affinity between the conjugate of TNFR2 and intelectin and TNF-alpha (Biacore, Example 11); assay type: binding; details: TNF-alpha as analyte, ligand fixed to sensor chip
# Protocol: The binding affinity between the conjugate generated in Example 7 and TNF-alpha was measured using Biacore (GE Healthcare Biosciences). The binding affinity between a commercially available anti-TNF formulation (Etanercept, soluble TNF receptor, product name “ Enbrel (registered trademark),” Takeda Pharmaceutical Company) and TNF-alpha was also measured as a control.
# Recombinant human TNF-alpha (Life Technologies) was used as TNF-alpha.
# IL-6 protein = IL-6 protein (Homo sapiens, UniProt P05231); test: ELISA on IL-6 protein with the conjugate of antibody Fab fragment and intelectin (Example 8); assay type: binding; details: conjugate as primary antibody; HRP-labeled anti-intelectin-1 antibody 2D2
# Sequence of IL-6 protein (P05231 30-212): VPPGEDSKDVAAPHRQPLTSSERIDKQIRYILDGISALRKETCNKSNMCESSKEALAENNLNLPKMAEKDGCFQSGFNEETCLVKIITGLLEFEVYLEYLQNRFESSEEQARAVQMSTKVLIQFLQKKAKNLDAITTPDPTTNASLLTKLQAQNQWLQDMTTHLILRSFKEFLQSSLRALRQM
# Protocol: An ELISA analysis on IL-6 protein was performed using the conjugate generated in Example 6.
# More specifically, IL-6 protein was adsorbed on an ELISA plate, and the conjugate generated in Example 6 was used for reaction as the primary antibody, and the horseradish peroxidase-labeled anti-intelectin-1 monoclonal antibody (2D2) was used for reaction as the secondary antibody. The detection was conducted using 3,3′,5,5′-tetramethylbenzidine.
# [5] = Biacore, intelectin 0.5 microgram/mL, sensor chip with 3-amino-1-propanediol fixed, 10 mM HEPES pH 7.0, 1 mM CaCl2, read-out: IC50 for inhibition of the binding of intelectin and the diol group
Compound,"IC50 [2, 5] [mM]",also measured
CCCCCCCCCCCCCCCC(=O)OCC(O)CO (stereo not drawn) [1-monopalmitin],–,binding of intelectin to the lipid (SDS-PAGE) [1]: bound
O=P(O)(O)OCC(O)CO (stereo not drawn) [alpha-glycerophosphate],1.2,–
NCCO [Ethanolamine],> 100,–
O=C1O[C@H]([C@@H](O)CO)C(O)=C1O [L-ascorbic acid],0.8,–
"CC(O)CO (stereo not drawn) [1,2-propanediol]",0.9,–
"CC(=O)N[C@H]1C(O)O[C@H](CO)[C@@H](O[C@@H]2O[C@H](CO)[C@H](O)[C@H](O)[C@H]2O)[C@@H]1O (stereo partly drawn) [Galp-GlcNAc, 2-acetamido-2-deoxy-4-O-beta-D-galactopyranosyl-D-glucopyranose]",13,–
O=C[C@H](O)[C@H](O)[C@@H](O)CO [L-lyxose],13,–
O=C[C@H](O)[C@@H](O)[C@@H](O)[C@H](O)CO [D-galactose],–,IC50 [2]: 11 mM
CCO [ethanol],> 100,–
OC[C@@H](O)[C@@H](O)[C@@H](O)CO [ribitol],1.2,–
"C[C@H](O)[C@@H](C)O [meso-2,3-butanediol]",1.8,–
O=C[C@H](O)[C@@H](O)[C@H](O)[C@H](O)CO [D-glucose],–,IC50 [2]: 18 mM
Etanercept,–,cytotoxicity inhibitory activity (cell survival rate) [3]: approximately equivalent cytotoxicity inhibitory activities; association rate constant Ka [4]: 1.09e+06 M⁻¹ s⁻¹; dissociation rate constant Kd [4]: 0.000342 s⁻¹; Kd ([4]; read-out: dissociation constant KD): 0.313 nM
OCCO [ethylene glycol],–,IC50 [2]: 2.2 mM
O=C(CO)[C@@H](O)[C@H](O)[C@@H](O)CO [L-sorbose],–,IC50 [2]: 14 mM
COC1(C(=O)O)C[C@H](O)[C@@H](NC(C)=O)[C@H]([C@H](O)[C@H](O)CO)O1 (stereo partly drawn) [2-O-methyl-D-N-acetylneuraminic acid],6,–
O=C[C@@H](O)[C@@H](O)[C@@H](O)CO [L-ribose],0.3,–
O=CC[C@@H](O)[C@@H](O)[C@H](O)CO [2-deoxygalactose],1.1,–
O=C[C@@H](O)[C@H](O)[C@H](O)CO [D-arabinose],30,–
CCCCCCCCCCCCCCCC(=O)OC(CO)CO [2-monopalmitin],–,binding of intelectin to the lipid (SDS-PAGE) [1]: bound
O=C(CO)[C@@H](O)[C@H](O)[C@H](O)CO [D-fructose],–,IC50 [2]: 9 mM
C[C@@H](O)[C@H](O)[C@H](O)[C@@H](O)C=O [D-fucose],60,–
O=CC[C@H](O)[C@H](O)CO [2-deoxyribose],1.8,–
"OCCCCO [1,4-butanediol]",–,IC50 [2]: > 100 mM
"C[C@@H](O)CO [(R)-1,2-propanediol]",1,–
C[C@H](O)[C@H](O)[C@@H](O)[C@@H](O)C=O [L-rhamnose],30,–

Compound,"IC50 [2, 5] [mM]",also measured
O=C[C@@H](O)[C@H](O)[C@@H](O)CO [L-xyrose],9,–
O=C[C@H](O)[C@@H](O)[C@@H](O)CO [L-arabinose],22,–
O=P(O)(O)OC(CO)CO [Beta-glycerophosphate],> 100,–
O=C[C@H](O)[C@@H](O)[C@H](O)CO [D-xylose],3.3,–
"OCCCO [1,3-propanediol]",30,–
"CCC(O)CO (stereo not drawn) [1,2-butanediol]",0.8,–
NC(CO)(CO)CO [Tris],14,–
O=C[C@H](O)[C@H](O)[C@H](O)CO [D-ribose],0.5,–
CCCC(=O)OCC(O)CO (stereo not drawn) [monobutyrin],0.8,–
"C[C@H](O)CO [(S)-1,2-propanediol]",1.2,–
COCCO [2-methoxyethanol],> 100,–
"conjugate generated in Example 6: H chain Fab region of anti-IL-6 monoclonal antibody MH166 joined via one glycine to human intelectin-1 (S165A), co-expressed with MH166 L chain",–,binding to IL-6 protein (ELISA) (IL-6 protein): bind to IL-6 protein
"C[C@H](O)[C@H](C)O [(S,S)-2,3-butanediol]",5,–
OCC(O)CO [glycerol],0.8,–
CC(=O)N[C@H]1C(O)O[C@H](CO)[C@@H](O)[C@@H]1O (stereo partly drawn) [N-acetylglucosamine],50,–
NCCCO [3-amino-1-propanol],> 100,–
CCCCCCCCCCCCCCCC(=O)OCC(O)COP(=O)(O)O (stereo not drawn) [1-palmitoyl lysophosphatidic acid],–,binding of intelectin to the lipid (SDS-PAGE) [1]: only slightly
C[C@H](O)[C@@H](O)[C@@H](O)[C@H](O)C=O [L-fucose],> 100,–
O=C[C@@H](O)[C@@H](O)[C@H](O)CO [D-lyxose],22,–
CCCO [1-propanol],> 100,–
"CC(O)CCO (stereo not drawn) [1,3-butanediol]",35,–
"NCC(O)CO (stereo not drawn) [3-amino-1,2-propanediol]",1.8,–
"C[C@@H](O)[C@@H](C)O [(R,R)-2,3-butanediol]",5,–
O=C[C@@H](O)[C@@H](O)[C@H](O)[C@H](O)CO [D-mannose],–,IC50 [2]: 16 mM
"CC(=O)N[C@H]1C(O)O[C@H](CO)[C@@H](O[C@@H]2O[C@@H]([C@H](O)CO)[C@H](O)[C@H]2O)[C@@H]1O (stereo partly drawn) [Galf-GlcNAc, 2-acetamido-2-deoxy-4-O-beta-D-galactofuranosyl-D-glucopyranose]",1.4,–
